One compound from patent US20090182033A1, “Cyclic Amine Derivatives and Their Uses” (ARGENTA DISCOVERY LTD., priority 2005, published 2009) can be followed below.

The assay deals with T1, M3 muscarinic receptor (Homo sapiens, UniProt P20309).
T1 construct: purchased
The assay can be described thus: Muscarinic receptor radioligand binding assay ([3H]-NMS). To be noted: cell membranes expressing the human muscarinic receptors, 3 hours incubation, read-out: binding affinity Ki. As for the experimental part: The inhibitory effects of compounds of the present invention at the M3 muscarinic receptor were determined by the following binding assays:
Radioligand binding studies utilising [^3H]-N-methyl scopolamine ([^3H]-NMS) and commercially available cell membranes expressing the human muscarinic receptors (M2 and M3) were used to assess the affinity of muscarinic antagonists for M2 and M3 receptors. Membranes in TRIS buffer were incubated in 96-well plates with [^3H]-NMS and M3 antagonist at various concentrations for 3 hours. Membranes and bound radioligand were then harvested by filtration and allowed to dry overnight. Scintillation fluid was then added and the bound radioligand counted using a Can berra Packard Topcount scintillation counter

Structures are written as SMILES.

T1 sequence (P20309 whole entry): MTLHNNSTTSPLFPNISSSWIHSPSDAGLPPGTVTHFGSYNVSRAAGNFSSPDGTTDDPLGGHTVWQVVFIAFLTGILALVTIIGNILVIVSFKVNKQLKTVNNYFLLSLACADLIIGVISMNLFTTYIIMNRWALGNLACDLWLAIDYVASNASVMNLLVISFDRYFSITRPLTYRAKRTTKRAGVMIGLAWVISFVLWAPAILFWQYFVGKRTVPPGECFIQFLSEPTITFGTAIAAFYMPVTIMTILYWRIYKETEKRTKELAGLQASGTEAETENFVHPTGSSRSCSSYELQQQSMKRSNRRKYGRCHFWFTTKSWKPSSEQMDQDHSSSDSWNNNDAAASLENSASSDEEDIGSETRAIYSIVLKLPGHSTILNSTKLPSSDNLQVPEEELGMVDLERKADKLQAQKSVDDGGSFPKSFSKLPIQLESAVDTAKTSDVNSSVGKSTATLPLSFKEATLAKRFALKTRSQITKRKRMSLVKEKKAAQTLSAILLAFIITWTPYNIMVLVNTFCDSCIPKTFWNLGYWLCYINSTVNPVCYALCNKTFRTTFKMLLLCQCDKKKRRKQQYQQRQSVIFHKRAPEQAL

As to `C[N+](C)(CCCc1ccccc1)C1CC2CCC1C2OCc1ccccc1` [Example 6, Anti (1S, 2S) (7-benzyloxybi-cyclo[2.2.1]hept-2-yl)-dimethyl-(3-phenyl-propyl)-ammonium bromide], the Ki was under 100 nM.

Broadly, the Ki is a dissociation constant, usually derived from enzyme kinetics or from competition with a known ligand.
